Laboratory results from patent US8778966B2, “Quinolinone derivatives as PARP and tank inhibitors” (Janssen Pharmaceutica, NV, priority 2007, dated 2014).

Tests used:
[1] = molecular target: T1, TANK-2 enzyme (Homo sapiens, UniProt Q9H2K2); experiment: In vitro Scintillation Proximity Assay (SPA) for TANK-2 inhibitory activity; type: biochemical; conditions: read-out: in vitro SPA assay TANK-2 pIC50 (converted)
T1 construct: made in house
T1 sequence (Q9H2K2 1-1166): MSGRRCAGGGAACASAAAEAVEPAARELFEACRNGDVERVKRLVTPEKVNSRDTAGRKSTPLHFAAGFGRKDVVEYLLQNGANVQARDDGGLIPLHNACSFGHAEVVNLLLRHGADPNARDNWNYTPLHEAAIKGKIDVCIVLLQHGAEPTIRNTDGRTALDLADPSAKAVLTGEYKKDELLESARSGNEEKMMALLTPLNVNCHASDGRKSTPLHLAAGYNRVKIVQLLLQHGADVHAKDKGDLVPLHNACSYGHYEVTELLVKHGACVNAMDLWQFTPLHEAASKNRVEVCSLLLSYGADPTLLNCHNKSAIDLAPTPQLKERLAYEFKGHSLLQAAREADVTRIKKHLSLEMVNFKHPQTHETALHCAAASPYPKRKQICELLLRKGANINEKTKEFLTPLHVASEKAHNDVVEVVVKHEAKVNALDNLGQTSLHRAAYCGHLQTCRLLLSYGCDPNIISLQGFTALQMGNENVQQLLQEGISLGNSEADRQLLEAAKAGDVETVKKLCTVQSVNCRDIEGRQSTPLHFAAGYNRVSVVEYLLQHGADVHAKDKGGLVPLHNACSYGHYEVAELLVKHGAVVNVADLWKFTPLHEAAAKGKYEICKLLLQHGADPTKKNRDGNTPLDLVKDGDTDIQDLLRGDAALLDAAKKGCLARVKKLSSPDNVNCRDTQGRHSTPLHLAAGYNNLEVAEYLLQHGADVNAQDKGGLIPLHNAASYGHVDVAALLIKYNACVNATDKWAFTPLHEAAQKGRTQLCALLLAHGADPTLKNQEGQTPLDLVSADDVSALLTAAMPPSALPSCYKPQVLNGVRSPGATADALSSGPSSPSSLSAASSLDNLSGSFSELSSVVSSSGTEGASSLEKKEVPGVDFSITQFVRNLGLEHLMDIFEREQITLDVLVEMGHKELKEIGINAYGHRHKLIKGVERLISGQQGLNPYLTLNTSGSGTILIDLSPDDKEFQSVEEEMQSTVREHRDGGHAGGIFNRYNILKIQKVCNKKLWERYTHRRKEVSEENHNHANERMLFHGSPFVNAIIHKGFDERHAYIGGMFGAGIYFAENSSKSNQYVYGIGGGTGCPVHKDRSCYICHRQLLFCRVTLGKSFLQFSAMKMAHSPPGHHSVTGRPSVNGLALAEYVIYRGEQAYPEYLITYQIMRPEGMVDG
In short: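 Results are pIC50 values, with IC50 interpolated linearly around 50% of blank-subtracted control cpm. They come from a scintillation proximity read of TANK-2 (8 μg/ml) self-modification with [3H]-NAD+/NAD, incubated 120 min at room temperature in pH 7.4 Tris buffer containing MgCl2 and DTT. Compounds were first screened at 10^−5 M.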

[2] = system: PC3 cells; experiment: EB1 Comet (microtubule disruption) assay; type: cell-based, human; conditions: Homo sapiens, PC-3, 1 h, 1 hour treatment, read-out: EB1 pLAC (converted)
In short: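 Readout is loss of Eb1 plus-end foci, scored by immunofluorescence microscopy, in PC3 cells after 1 h compound treatment at 37 °C with 0.6% final DMSO. LAC is defined as the lowest concentration leaving at least 50% of cells without Eb1 foci.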

| SMILES | IC50 [1] [nM] | minimal effective concentration [2] [µM] |
| --- | --- | --- |
| CCc1cc2ccc([C@@](C)(C#N)Cc3cccc(N(C)C)c3)cc2[nH]c1=O (single isomer, unassigned) [Compound 258] | 501 | 0.316 |
| CCc1cc2ccc([C@](C)(C#N)Cc3cccc(N(C)C)c3)cc2[nH]c1=O (single isomer, unassigned) [Compound 259] | 200 |  |
| CCC[C@@](C#N)(Cc1ccccc1)c1ccc2cc(CC)c(=O)[nH]c2c1 (single isomer, unassigned) [Compound 263] | 2000 | 3.16 |
| CCC[C@](C#N)(Cc1ccccc1)c1ccc2cc(CC)c(=O)[nH]c2c1 (single isomer, unassigned) [Compound 264] | 2510 |  |
| CCc1cc2ccc([C@@](C)(C#N)Cc3cccc(C#N)c3)cc2[nH]c1=O (single isomer, unassigned) [Compound 268] | 79.4 |  |
| CCc1cc2ccc([C@](C)(C#N)Cc3cccc(C#N)c3)cc2[nH]c1=O (single isomer, unassigned) [Compound 269] | 158 | 0.1 |
| CCc1cc2ccc([C@](C)(C#N)C[C@@H]3Cc4cc(C)ccc4O3)cc2[nH]c1=O (single isomer, unassigned) [Compound 400] | 501 |  |
| CCc1cc2ccc(C(C)(C#N)Cc3cccc(OC[C@@H](O)CO)c3)cc2[nH]c1=O (some centres unmarked) [Compound 56] | 1580 | 3.16 |
| CCc1cc2ccc(C(C)(C#N)Cc3cccc(CNS(C)(=O)=O)c3)cc2[nH]c1=O (centres unmarked) [Compound 170] | 794 | 3.16 |
| CCc1cc2ccc([C@](C)(C#N)[C@H](C)c3ccccc3)cc2[nH]c1=O [Compound 200] | 1260 | 0.316 |
| CCc1cc2ccc(C(C)(C#N)Cc3cccc(C#C[Si](C)(C)C)n3)cc2[nH]c1=O (centres unmarked) [Compound 210] | 3980 | 0.316 |
| CCc1cc2ccc(C(C)(C#N)Cc3cccc(OCCOC)n3)cc2[nH]c1=O (centres unmarked) [Compound 219] | 398 | 1 |
| CCc1cc2ccc(C(C)(C#N)Cc3cccc(OCCO)c3)cc2[nH]c1=O (centres unmarked) [Compound 262] | 631 |  |
| CCc1cc2ccc(C(C)(C#N)CCOc3cccc(C(F)(F)F)c3)cc2[nH]c1=O (centres unmarked) [Compound 274] | 2510 |  |
| CCc1cc2ccc(C(C)(C#N)Cc3cccc(CN)c3)cc2[nH]c1=O (centres unmarked) [Compound 290] | 316 | 3.16 |
| CCc1cc2ccc(C(C)(C#N)Cc3cccc(/C=C/S(C)(=O)=O)c3)cc2[nH]c1=O (centres unmarked) [Compound 292] | 126 | 0.1 |
| CCc1c(Cl)c2ccc(C(C)(C#N)Cc3cccc(C#N)c3)cc2[nH]c1=O (centres unmarked) [Compound 293] | 1000 | 1 |
| CCc1cc2cc(OC)c(C(C)(C#N)Cc3ccccc3)cc2[nH]c1=O (centres unmarked) [Compound 294] | 158 |  |
| CCc1cc2ccc(C(C)(C#N)Cc3cccc(C#CCOC)c3)cc2[nH]c1=O (centres unmarked) [Compound 297] | 1580 | 0.1 |
| CCc1cc2ccc(C(C)(C#N)Cc3cccc(C#CCN(C)C)c3)cc2[nH]c1=O (centres unmarked) [Compound 298] | 1580 | 1 |
| CCc1cc2ccc(C(C)(C#N)CNCc3cccc(C#N)c3)cc2[nH]c1=O (centres unmarked) [Compound 301] | 79.4 | 3.16 |
| CCc1cc2ccc(C(C)(C#N)Cc3cnc(Cl)nc3Cl)cc2[nH]c1=O (centres unmarked) [Compound 306] | 126 | 3.16 |
| COc1cc(OC)nc(CC(C)(C#N)c2ccc3cc(C)c(=O)[nH]c3c2)n1 (centres unmarked) [Compound 308] | 3160 |  |
| CCOc1cc(OCC)nc(CC(C)(C#N)c2ccc3cc(CC)c(=O)[nH]c3c2)n1 (centres unmarked) [Compound 309] | 2000 | 3.16 |
| CCc1cc2ccc(C(C)(C#N)Cc3cccc(Cl)n3)cc2[nH]c1=O (centres unmarked) [Compound 310] | 251 | 1 |
| CCc1cc2ccc(C(C)(C#N)Cc3ncc(C)c(OC)c3C)cc2[nH]c1=O (centres unmarked) [Compound 311] | 1260 | 3.16 |

| SMILES | IC50 [1] [nM] | minimal effective concentration [2] [µM] |
| --- | --- | --- |
| CCc1cc2ccc(C(C)(C#N)Cc3ccc(C)nc3)cc2[nH]c1=O (centres unmarked) [Compound 327] | 631 |  |
| CCc1cc2ccc(C(C)(C#N)Cc3cccc(C#N)n3)cc2[nH]c1=O (centres unmarked) [Compound 329] | 316 | 0.316 |
| CCCn1ccnc1CC(C)(C#N)c1ccc2cc(CC)c(=O)[nH]c2c1 (centres unmarked) [Compound 335] | 501 | 10 |
| CCc1cc2ccc(C(C)(C#N)Cc3ccc4ccccc4n3)cc2[nH]c1=O (centres unmarked) [Compound 336] | 100 | 1 |
| CCc1cc2ccc(C(C)(C#N)Cc3nccn3CC)cc2[nH]c1=O (centres unmarked) [Compound 337] | 631 | 1 |
| CCc1cc2ccc(C(C)(C#N)Cc3nc4ccccc4n3C)cc2[nH]c1=O (centres unmarked) [Compound 338] | 501 | 1 |
| CCc1cc2ccc(C(C)(C#N)Cc3cccc(C)n3)cc2[nH]c1=O (centres unmarked) [Compound 343] | 398 | 3.16 |
| CCc1cc2ccc(C(C)(C#N)Cc3cccc(Br)n3)cc2[nH]c1=O (centres unmarked) [Compound 344] | 316 | 0.316 |
| CCc1cc2ccc(C(C)(C#N)Cc3cccc(CO)n3)cc2[nH]c1=O (centres unmarked) [Compound 345] | 501 |  |
| CCc1cc2ccc(C(C)(C#N)Cc3ccc(OC)nc3)cc2[nH]c1=O (centres unmarked) [Compound 352] | 631 | 1 |
| CCc1cc2ccc(C(C)(C#N)Cc3cccc(OC)n3)cc2[nH]c1=O (centres unmarked) [Compound 353] | 200 |  |
| CCc1cc2ccc(C(C)(C#N)Cc3cnc(OC)nc3Cl)cc2[nH]c1=O (centres unmarked) [Compound 356] | 79.4 | 0.1 |
| CCc1cc2ccc(C(C)(C#N)Cc3cnc(OC)nc3OC)cc2[nH]c1=O (centres unmarked) [Compound 357] | 79.4 | 0.316 |
| CCc1cc2ccc(C(C)(C#N)Cc3cc(OC)nc(OC)n3)cc2[nH]c1=O (centres unmarked) [Compound 358] | 100 |  |
| CCc1cc2ccc(C(C)(C#N)Cc3nc(Cl)cc(N(C)C)n3)cc2[nH]c1=O (centres unmarked) [Compound 359] | 100 | 0.1 |
| CCc1cc2ccc(C(C)(C#N)Cc3nccc(OC)n3)cc2[nH]c1=O (centres unmarked) [Compound 360] | 126 | 1 |
| CCc1cc2ccc(C(C)(C#N)Cc3cc(OCCOC)nc(C)n3)cc2[nH]c1=O (centres unmarked) [Compound 363] | 158 | 1 |
| CCc1cc2ccc(C(C)(C#N)Cc3cc(N(C)C)nc(Cl)n3)cc2[nH]c1=O (centres unmarked) [Compound 364] | 100 | 1 |
| CCc1cc2ccc(C(C)(C#N)Cc3cc(OC)nc(C)n3)cc2[nH]c1=O (centres unmarked) [Compound 366] | 158 | < 0.0316 |
| CCc1cc2ccc(C(C)(C#N)Cc3cc(OCCOC)nc(Cl)n3)cc2[nH]c1=O (centres unmarked) [Compound 367] | 158 | 1 |
| CCc1cc2ccc(C(C)(C#N)Cc3nc(C)cc(C)n3)cc2[nH]c1=O (centres unmarked) [Compound 368] | 158 | 1 |
| CCc1cc2ccc(C(C)(C#N)Cc3nccc(OCCOC)n3)cc2[nH]c1=O (centres unmarked) [Compound 369] | 631 | 3.16 |
| CCc1cc2ccc(C(C)(C#N)Cc3nc(Cl)cc(OCCOC)n3)cc2[nH]c1=O (centres unmarked) [Compound 370] | 251 | 1 |
| CCc1cc2ccc(C(C)(C#N)Cc3cc(Cl)nc(Cl)c3)cc2[nH]c1=O (centres unmarked) [Compound 372] | 126 | 1 |
| CCc1cc2ccc(C(C)(C#N)Cc3cc(OC)ccn3)cc2[nH]c1=O (centres unmarked) [Compound 373] | 501 |  |
